Test results taken from the supplement of paper PMC10307832.

The cell lines below were run with CC1=CC(=C(N1C2=CC=C(C=C2)Cl)C)C(=O)CN3CCCCC3 [IU1-47] + Nc1ncn([C@H]2C[C@H](O)[C@@H](CO)O2)c(=O)n1 [Decitabine] (partner 2 µM) (assay: relative viability (nuclei count vs DMSO), 5 days (fraction); higher = more cells survive). Conditions: first compound 8 µM.
Summary of the method: (§1)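 After 5 days of treatment, lung cancer cells in 1536-well plates were fixed and stained in a single step (final 0.05% Triton X-100, 1% formaldehyde, 1 ug/ml Hoechst) and their nuclei counted on 4× images. Treatment had been applied by pin tool the day after seeding as one drug alone or as a fixed anchor-drug dose with five library-drug doses (not always all listed) in √10 steps. Relative viability is the nuclei count of treated wells divided by that of vehicle wells, and values are medians of duplicate plates.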
EKVX showed a relative viability of 0.352.
LC-2-ad was tested, and the relative viability was 0.78.

The cell lines below were run with Cc1nc(C(=O)NCC(=O)O)c(O)c2ccc(Oc3ccccc3)cc12 [FG-4592] + C[C@@H](Oc1cc(-c2cnn(C3CCNCC3)c2)cnc1N)c1c(Cl)ccc(F)c1Cl [Crizotinib] (partner 1 µM) in the same assay as above. Conditions: first compound 0.08 µM.
Summary of the method: as §1
HOP-62 showed a relative viability of 0.981.
Cell Line HCC-44 has a relative viability of 0.754.
Work on LU99A yielded a relative viability of 0.534.
Cell Line BEN has a relative viability of 0.729.
For HARA, the relative viability was 1.06.
Work on HCC-78 yielded a relative viability of 0.312.
NCI-H322M showed a relative viability of 0.924.
Work on LCLC-97TM1 yielded a relative viability of 0.347.
NCI-H2009 was tested, and the relative viability was 1.14.
A-427 was tested, and the relative viability was 0.801.
With NCI-H441 the relative viability was 0.582.
In the case of NCI-H1734, the relative viability is reported as 0.638.
In the case of NCI-H460, the relative viability is reported as 0.87.
NCI-H2347 showed a relative viability of 0.668.
Work on SK-LU-1 yielded a relative viability of 0.806.
201T showed a relative viability of 1.
NCI-H1915 gave a relative viability of 0.87.
HCC-827 showed a relative viability of 0.92.
With LXF-289 the relative viability was 0.796.
NCI-H23 was tested, and the relative viability was 0.556.
With NCI-H647 the relative viability was 0.941.
For NCI-H1651, the relative viability was 0.89.
EPLC-272H showed a relative viability of 0.844.
NCI-H1792 gave a relative viability of 0.96.
With NCI-H1355 the relative viability was 1.05.
NCI-H3122 gave a relative viability of 0.277.
NCI-H1437 gave a relative viability of 0.95.
In the case of NCI-H1755, the relative viability is reported as 0.77.
NCI-H2023 gave a relative viability of 0.609.
HCC-15 showed a relative viability of 0.819.
For PC-14, the relative viability was 0.893.
For EKVX, the relative viability was 1.08.
LC-2-ad showed a relative viability of 0.433.

Same assay, conditions: first compound 0.253 µM
HOP-62 was tested, and the relative viability was 0.89.
With HCC-44 the relative viability was 0.798.
LU99A gave a relative viability of 0.523.
BEN was tested, and the relative viability was 0.745.
For HARA, the relative viability was 0.967.
With HCC-78 the relative viability was 0.332.
In the case of NCI-H322M, the relative viability is reported as 0.886.
LCLC-97TM1 was tested, and the relative viability was 0.342.
With NCI-H2009 the relative viability was 0.967.
A-427 was tested, and the relative viability was 0.899.
In the case of NCI-H441, the relative viability is reported as 0.646.
With NCI-H1734 the relative viability was 0.711.
Work on NCI-H460 yielded a relative viability of 0.864.
SK-LU-1 showed a relative viability of 0.731.
With 201T the relative viability was 1.01.
For NCI-H1915, the relative viability was 0.883.
In the case of HCC-827, the relative viability is reported as 0.892.
LXF-289 gave a relative viability of 0.721.
NCI-H23 showed a relative viability of 0.471.
Cell Line NCI-H647 has a relative viability of 1.04.
With NCI-H1651 the relative viability was 0.799.
EPLC-272H gave a relative viability of 0.72.
NCI-H1792 was tested, and the relative viability was 0.764.
For NCI-H1355, the relative viability was 1.02.
For NCI-H3122, the relative viability was 0.271.
NCI-H1437 gave a relative viability of 0.911.
NCI-H1755 was tested, and the relative viability was 0.875.
Work on NCI-H2023 yielded a relative viability of 0.66.
With HCC-15 the relative viability was 0.712.
PC-14 showed a relative viability of 0.863.
EKVX gave a relative viability of 0.816.
LC-2-ad showed a relative viability of 0.412.

Same assay, conditions: first compound 0.8 µM
In the case of HOP-62, the relative viability is reported as 1.01.
With HCC-44 the relative viability was 0.878.
In the case of LU99A, the relative viability is reported as 0.543.
BEN was tested, and the relative viability was 0.743.
For HCC-78, the relative viability was 0.269.
With NCI-H322M the relative viability was 1.19.
Work on LCLC-97TM1 yielded a relative viability of 0.372.
With NCI-H2009 the relative viability was 1.01.
For A-427, the relative viability was 0.923.
NCI-H441 was tested, and the relative viability was 0.916.
In the case of NCI-H661, the relative viability is reported as 1.29.
NCI-H1734 gave a relative viability of 0.674.
With NCI-H460 the relative viability was 1.21.
NCI-H2347 showed a relative viability of 0.58.
With SK-LU-1 the relative viability was 0.912.
For 201T, the relative viability was 1.05.
Work on NCI-H1915 yielded a relative viability of 0.922.
For HCC-827, the relative viability was 0.923.
Cell Line LXF-289 has a relative viability of 0.911.
For NCI-H23, the relative viability was 0.654.
In the case of NCI-H647, the relative viability is reported as 1.01.
Work on NCI-H1651 yielded a relative viability of 0.829.
With EPLC-272H the relative viability was 0.631.
NCI-H1792 showed a relative viability of 0.812.
With NCI-H3122 the relative viability was 0.26.
NCI-H1437 showed a relative viability of 1.03.
Cell Line NCI-H1755 has a relative viability of 0.864.
NCI-H2023 was tested, and the relative viability was 0.703.
HCC-15 showed a relative viability of 0.808.
Cell Line PC-14 has a relative viability of 1.02.
For EKVX, the relative viability was 1.23.
LC-2-ad gave a relative viability of 0.48.

Same assay, conditions: first compound 2.53 µM
In the case of HOP-62, the relative viability is reported as 0.922.
HCC-44 showed a relative viability of 0.805.
LU99A was tested, and the relative viability was 0.558.
BEN gave a relative viability of 0.803.
In the case of HARA, the relative viability is reported as 1.
Cell Line HCC-78 has a relative viability of 0.31.
In the case of NCI-H322M, the relative viability is reported as 1.02.
In the case of NCI-H2009, the relative viability is reported as 0.953.
A-427 was tested, and the relative viability was 0.933.
NCI-H441 showed a relative viability of 0.72.
NCI-H661 was tested, and the relative viability was 1.04.
For NCI-H1734, the relative viability was 0.595.
Cell Line NCI-H460 has a relative viability of 0.952.
NCI-H2347 showed a relative viability of 0.724.
201T showed a relative viability of 1.02.
NCI-H1915 was tested, and the relative viability was 0.874.
In the case of HCC-827, the relative viability is reported as 1.02.
LXF-289 gave a relative viability of 0.77.
NCI-H23 showed a relative viability of 0.627.
NCI-H647 gave a relative viability of 1.17.
For NCI-H1651, the relative viability was 0.863.
Cell Line EPLC-272H has a relative viability of 0.888.
NCI-H1792 gave a relative viability of 1.01.
NCI-H1355 gave a relative viability of 1.07.
NCI-H3122 gave a relative viability of 0.3.
NCI-H1437 showed a relative viability of 0.936.
NCI-H1755 gave a relative viability of 0.941.
In the case of NCI-H2023, the relative viability is reported as 0.768.
HCC-15 gave a relative viability of 0.866.
Work on PC-14 yielded a relative viability of 0.961.
Cell Line EKVX has a relative viability of 0.977.
LC-2-ad gave a relative viability of 0.508.

Same assay, conditions: first compound 8 µM
Cell Line HOP-62 has a relative viability of 0.654.
HCC-44 gave a relative viability of 0.82.
Cell Line LU99A has a relative viability of 0.58.
Cell Line BEN has a relative viability of 0.594.
HARA showed a relative viability of 0.977.
HCC-78 was tested, and the relative viability was 0.337.
NCI-H322M gave a relative viability of 0.815.
Cell Line LCLC-97TM1 has a relative viability of 0.435.
NCI-H2009 was tested, and the relative viability was 0.98.
With A-427 the relative viability was 1.01.
NCI-H441 gave a relative viability of 0.632.
NCI-H661 gave a relative viability of 1.1.
With NCI-H1734 the relative viability was 0.643.
With NCI-H460 the relative viability was 0.994.
In the case of NCI-H2347, the relative viability is reported as 0.874.
For SK-LU-1, the relative viability was 0.968.
201T gave a relative viability of 0.974.
For NCI-H1915, the relative viability was 0.905.
Work on HCC-827 yielded a relative viability of 0.869.
LXF-289 was tested, and the relative viability was 0.901.
For NCI-H23, the relative viability was 0.472.
With NCI-H647 the relative viability was 1.03.
NCI-H1651 showed a relative viability of 0.862.
For EPLC-272H, the relative viability was 0.873.
Work on NCI-H1792 yielded a relative viability of 0.975.
NCI-H1355 was tested, and the relative viability was 0.944.
In the case of NCI-H3122, the relative viability is reported as 0.255.
NCI-H1437 gave a relative viability of 0.879.
NCI-H1755 showed a relative viability of 0.916.
With NCI-H2023 the relative viability was 0.544.
Work on HCC-15 yielded a relative viability of 0.875.
For PC-14, the relative viability was 0.922.
